# How the values were obtained:
# DNA sequence AGTACT = test: Quantitative DNase I footprint titration, site AGTACT; format: binding; details: DNase I footprinting, pH 7.0, 22° C.
# Method: (§1) A number of compounds according to this invention were screened for their ability to bind to three DNA sites, using DNase I footprinting.
# (§2) The target sites and their complements are identified in bold underline.
# (§3) The resulting duplexes were ligated to the large pUC19 XbaI/Pstl restriction fragment. […] (Sambrook et al., ibid.)
# (§4) The polyamides were allowed to equilbrate at 22° C. for 16 h.
# DNA sequence ACTACT = test: Quantitative DNase I footprint titration, site ACTACT; format: binding; details: DNase I footprinting, pH 7.0, 22° C.
# Method: as §1, §2, §3, §4
# DNA sequence AATACT = test: Quantitative DNase I footprint titration, site AATACT; format: binding; details: DNase I footprinting, pH 7.0, 22° C.
# Method: as §1, §2, §3, §4
# DNA sequence ATTACT = test: Quantitative DNase I footprint titration, site ATTACT; format: binding; details: DNase I footprinting, pH 7.0, 22° C.
# Method: as §1, §2, §3, §4
# DNA sequence ACTAGT = test: Quantitative DNase I footprint titration, site ACTAGT; format: binding; details: DNase I footprinting, pH 7.0, 22° C.
# Method: as §1, §2, §3, §4
# E. faecalis ATCC 29212 = test: NCCLS broth microdilution MIC, E. faecalis ATCC 29212; format: cell-based; details: organism D = E. faecalis ATCC 29212
# Method: (§5) Compounds according to this invention were screened for their in vitro activities against selected species of bacteria and fungi. The minimal inhibition concentration (MIC) of these compounds was determined using the National Committee for Clinical Laboratory Standards (NCCLS) broth microdilution assay in microtiter plates, as set forth in: (1) the guidelines of the National Committee for Clinical Laboratory Standards (NCCLS) Document M7-A4 (NCCLS, 1997); (2) the guidelines of the National Committee for Clinical Laboratory Standards (NCCLS) Document M11-A4 (NCCLS, 1997); and (3) the guidelines and reference method of the National Committee for Clinical Laboratory Standards (NCCLS) Document M27-T (NCCLS, 1995). For antifungal essays, the method recommended in Murray, PR., 1995 Manual of Clinical Microbiology (ASM Press, Washington, D.C.), was employed.
# S. aureus ATCC 13709 = test: NCCLS broth microdilution MIC, S. aureus ATCC 13709; format: cell-based; details: organism E = S. aureus ATCC 13709
# Method: as §5
# C. albicans ATCC 38247 = test: NCCLS broth microdilution MIC (antifungal), C. albicans ATCC 38247; format: cell-based; details: organism B = C. albicans ATCC 38247
# Method: as §5
# E. coli ATCC 25922 = test: NCCLS broth microdilution MIC, E. coli ATCC 25922; format: cell-based; details: organism C = E. coli ATCC 25922
# Method: as §5
# B. cereus ATCC 11778 = test: NCCLS broth microdilution MIC, B. cereus ATCC 11778; format: cell-based; details: organism A = B. cereus ATCC 11778
# Method: as §5
# S. pneumoniae ATCC 49619 = test: NCCLS broth microdilution MIC, S. pneumoniae ATCC 49619; format: cell-based; details: organism F = S. pneumoniae ATCC 49619
# Method: as §5
# S. aureus ATCC 27660 = test: MIC against drug-resistant bacteria, S. aureus ATCC 27660; format: cell-based; details: organism B = S. aureus ATCC 27660, methycillin resistant strain (MRSA)
# Method: as §5
# (§6) Further, compounds (I) are effective against drug-resistant bacteria, as evidenced by the data in Table 2 below:
# (§7) ATCC 27660 and ATCC 33591 are methycillin resistant strains of S. aureus (MRSA's). ATCC 51559 is a vancomycin resistant strain of E. faecium (VRE). ATCC 12228 is a methycillin resistant strain of S. epidermis (MRSE). ATCC 51422 is a penicillin resistant strain of S. pneumoniae.
# S. pneumoniae ATCC 51422 = test: MIC against drug-resistant bacteria, S. pneumoniae ATCC 51422; format: cell-based; details: organism E = S. pneumoniae ATCC 51422, penicillin resistant strain
# Method: as §5, §6, §7
# S. epidermis ATCC 12228 = test: MIC against drug-resistant bacteria, S. epidermis ATCC 12228; format: cell-based; details: organism D = S. epidermis ATCC 12228, methycillin resistant strain (MRSE)
# Method: as §5, §6, §7
# E. faecium ATCC 51559 = test: MIC against drug-resistant bacteria, E. faecium ATCC 51559; format: cell-based; details: organism A = E. faecium ATCC 51559, vancomycin resistant strain (VRE)
# Method: as §5, §6, §7
# S. aureus ATCC 33591 = test: MIC against drug-resistant bacteria, S. aureus ATCC 33591; format: cell-based; details: organism C = S. aureus ATCC 33591, methycillin resistant strain (MRSA)
# Method: as §5, §6, §7
# S. aureus ATCC 29213 = test: NCCLS broth microdilution MIC, S. aureus ATCC 29213; format: cell-based; details: organism G = S. aureus ATCC 29213
# Method: as §5
SMILES,"Association Constant, Ka (DNA sequence AGTACT)","Association Constant, Ka (DNA sequence ACTACT)","Association Constant, Ka (DNA sequence AATACT)","Association Constant, Ka (DNA sequence ATTACT)","Association Constant, Ka (DNA sequence ACTAGT)",Minimum Inhibitory Concentration (MIC) (E. faecalis ATCC 29212),Minimum Inhibitory Concentration (MIC) (S. aureus ATCC 13709),Minimum Inhibitory Concentration (MIC) (C. albicans ATCC 38247),Minimum Inhibitory Concentration (MIC) (E. coli ATCC 25922),Minimum Inhibitory Concentration (MIC) (B. cereus ATCC 11778),Minimum Inhibitory Concentration (MIC) (S. pneumoniae ATCC 49619),Minimum Inhibitoty Concentration (MIC) (S. aureus ATCC 27660),Minimum Inhibitoty Concentration (MIC) (S. pneumoniae ATCC 51422),Minimum Inhibitoty Concentration (MIC) (S. epidermis ATCC 12228),Minimum Inhibitoty Concentration (MIC) (E. faecium ATCC 51559),Minimum Inhibitoty Concentration (MIC) (S. aureus ATCC 33591),Minimum Inhibitory Concentration (MIC) (S. aureus ATCC 29213)
"CN(C)CCCNC(=O)CCNC(=O)c1cc(NC(=O)c2cc(NC(=O)c3cc(NC(=O)c4nc(NC(=O)CCCNC(=O)c5cc(NC(=O)c6cc(NC(=O)c7cc(NC(=O)c8nsc(NCCCN(C)C)c8Cl)cn7C)cn6C)cn5C)cn4C)cn3C)cn2C)cn1C [B, reference compound]",1e+11 M⁻¹,7e+09 M⁻¹,7e+09 M⁻¹,7e+09 M⁻¹,<1e+08 M⁻¹,–,–,–,–,–,–,–,–,–,–,–,–
"CN(C)CCCNC(=O)CCNC(=O)c1cc(NC(=O)c2cc(NC(=O)c3cc(NC(=O)c4nc(NC(=O)CCCNC(=O)c5cc(NC(=O)c6cc(NC(=O)c7cc(NC(=O)c8nccn8C)cn7C)cn6C)cn5C)cn4C)cn3C)cn2C)cn1C [Compound A, reference compound]",3e+09 M⁻¹,5e+08 M⁻¹,500000 M⁻¹,5e+08 M⁻¹,<1e+08 M⁻¹,–,–,–,–,–,–,–,–,–,–,–,–
Cn1cc(NC(=O)c2ccc3nc(-c4sccc4Cl)[nH]c3c2)cc1-c1nc2ccc(C(=O)NCCN3CCOCC3)cc2[nH]1 [Compound I-1],–,–,–,–,–,+++ (MIC ≦4),+++ (MIC ≦4),>32 µg/mL,>32 µg/mL,+++ (MIC ≦4),+++ (MIC ≦4),+++ (MIC ≦4),–,–,–,–,–
Cn1cc(NC(=O)c2ccc3nc(-c4cc(NC(=O)c5sccc5Cl)cn4C)[nH]c3c2)cc1C(=O)NCCN1CCOCC1 [Compound I-2],–,–,–,–,–,+++ (MIC ≦4),+++ (MIC ≦4),>32 µg/mL,>32 µg/mL,+++ (MIC ≦4),+++ (MIC ≦4),+++ (MIC ≦4),+++ (MIC ≦4),+++ (MIC ≦4),+++ (MIC ≦4),+++ (MIC ≦4),–
Cn1cc(NC(=O)c2sccc2Cl)cc1C(=O)Nc1cc(-c2nc3ccc(C(=O)NCCN4CCOCC4)cc3[nH]2)n(C)c1 [Compound I-3],–,–,–,–,–,+++ (MIC ≦4),+++ (MIC ≦4),>32 µg/mL,+++ (MIC ≦4),+++ (MIC ≦4),+++ (MIC ≦4),+++ (MIC ≦4),+++ (MIC ≦4),+++ (MIC ≦4),+++ (MIC ≦4),–,–
Cn1cc(NC(=O)c2cc(NC(=O)c3ccc4nc(-c5sccc5Cl)[nH]c4c3)cn2C)cc1C(=O)NCCN1CCOCC1 [Compound I-4],–,–,–,–,–,>32 µg/mL,–,>32 µg/mL,>32 µg/mL,>32 µg/mL,+++ (MIC ≦4),–,–,–,–,–,"+ (MIC from 12 to 32, inclusive)"
Cn1cc(NC(=O)c2cc(NC(=O)c3ccc4nc(-c5sc6ccccc6c5Cl)[nH]c4c3)cn2C)cc1C(=O)NCCN1CCOCC1 [Compound I-5],–,–,–,–,–,>32 µg/mL,–,>32 µg/mL,>32 µg/mL,>32 µg/mL,>32 µg/mL,–,–,–,–,–,>32 µg/mL
CN(C)CCCNC(=O)CCNC(=O)c1cc(NC(=O)c2cc(NC(=O)CCNC(=O)c3cc(NC(=O)c4ccc5nc(-c6cc(Br)c(Br)s6)[nH]c5c4)cn3C)cn2C)cn1C [Compound I-6],–,–,–,–,–,>32 µg/mL,–,>32 µg/mL,>32 µg/mL,>32 µg/mL,>32 µg/mL,–,–,–,–,–,>32 µg/mL
CN(C)CCCNC(=O)CCNC(=O)c1cc(NC(=O)c2cc(NC(=O)c3cc(NC(=O)c4nc(NC(=O)CCCNC(=O)c5cc(NC(=O)c6cc(NC(=O)c7ccc8nc(-c9nccn9C)[nH]c8c7)cn6C)cn5C)cn4C)cn3C)cn2C)cn1C [Compound I-8],1e+11 M⁻¹,5e+09 M⁻¹,1e+09 M⁻¹,5e+09 M⁻¹,<1e+08 M⁻¹,–,–,–,–,–,–,–,–,–,–,–,–
CN(C)CCCNC(=O)CCNC(=O)c1cc(NC(=O)c2cc(NC(=O)c3cc(NC(=O)c4nc(NC(=O)CCCNC(=O)c5cc(NC(=O)c6cc(NC(=O)c7ccc8nc(-c9nsc(Cl)c9Cl)[nH]c8c7)cn6C)cn5C)cn4C)cn3C)cn2C)cn1C [Compound I-9],1e+11 M⁻¹,5e+09 M⁻¹,1e+09 M⁻¹,5e+09 M⁻¹,<1e+08 M⁻¹,–,–,–,–,–,–,–,–,–,–,–,–
CN(C)CCCNC(=O)c1ccc2nc(-c3cc(NC(=O)c4cc(NC(=O)c5cc6ccccc6cn5)cn4C)cn3C)[nH]c2c1 [Compound I-33],–,–,–,–,–,–,–,–,–,–,–,+++ (MIC ≦4),+++ (MIC ≦4),+++ (MIC ≦4),+++ (MIC ≦4),+++ (MIC ≦4),–
Cn1cc(NC(=O)c2ccc3nc(-c4cc(NC(=O)c5ccc(F)cc5F)cn4C)[nH]c3c2)cc1C(=O)NCCN1CCCCC1 [Compound I-35],–,–,–,–,–,–,–,–,–,–,–,+++ (MIC ≦4),+++ (MIC ≦4),+++ (MIC ≦4),+++ (MIC ≦4),+++ (MIC ≦4),–
Cn1cc(NC(=O)c2sccc2Cl)cc1C(=O)Nc1cc(-c2nc3ccc(C(=O)NCCN4CCCCC4)cc3[nH]2)n(C)c1 [Compound I-36],–,–,–,–,–,–,–,–,–,–,–,+++ (MIC ≦4),+++ (MIC ≦4),+++ (MIC ≦4),+++ (MIC ≦4),+++ (MIC ≦4),–
Cn1cc(NC(=O)c2sccc2Cl)cc1C(=O)Nc1cc(-c2nc3ccc(C(=O)NCCN4CCSCC4)cc3[nH]2)n(C)c1 [Compound I-38],–,–,–,–,–,–,–,–,–,–,–,+++ (MIC ≦4),+++ (MIC ≦4),+++ (MIC ≦4),+++ (MIC ≦4),+++ (MIC ≦4),–
Cn1cc(NC(=O)c2ccc3nc(-c4cc(NC(=O)c5ccc(F)cc5F)cn4C)[nH]c3c2)cc1C(=O)NCCN1CCOCC1 [Compound I-39],–,–,–,–,–,–,–,–,–,–,–,+++ (MIC ≦4),+++ (MIC ≦4),+++ (MIC ≦4),+++ (MIC ≦4),+++ (MIC ≦4),–
CCN(CC)CCNC(=O)c1ccc2nc(-c3cc(NC(=O)c4cc(NC(=O)c5sccc5Cl)cn4C)cn3C)[nH]c2c1 [Compound I-40],–,–,–,–,–,–,–,–,–,–,–,+++ (MIC ≦4),+++ (MIC ≦4),+++ (MIC ≦4),+++ (MIC ≦4),+++ (MIC ≦4),–

# From patent US6716866B2, “Aryl-benzimidazole compounds having antiinfective activity” (GeneSoft Pharmaceuticals, Inc., priority 2001, dated 2004)
